Laboratory results reported in ChEMBL document CHEMBL1201862, “PubChem BioAssay data set” (2004).
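The compound was tested at five concentrations on cells cultured in 96-well plates, with a 48-hour exposure period. At the GI50, growth is halved.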 The source made the active and inactive calls. Cut-off read from the data, not from the text of the source: active = GI50 up to about 1.1 µM and inactive = higher.

Legend:
Assay in all cases: NCI anticancer screen, dose series, 48 h
Malme-3M = test system: Malme-3M
RXF 393 = test system: RXF 393
T47D = test system: T47D
NCI-H460 = test system: NCI-H460
A549 = test system: A549
SF-539 = test system: SF-539
A498 = test system: A498
LOX IMVI = test system: LOX IMVI
UACC-257 = test system: UACC-257
SNB-75 = test system: SNB-75
OVCAR-5 = test system: OVCAR-5
SR = test system: SR
DU-145 = test system: DU-145
MOLT-4 = test system: MOLT-4
ACHN = test system: ACHN
BT-549 = test system: BT-549
HT-29 = test system: HT-29
HCC 2998 = test system: HCC 2998
SN12C = test system: SN12C
HL-60 = test system: HL-60

## CN(C)CC1CCCCCC(Br)C1=O (stereo not given)
Malme-3M
  GI50: 6.5 µM (inactive)
RXF 393
  GI50: 15.4 µM (inactive)
T47D
  GI50: 9.23 µM (inactive)
NCI-H460
  GI50: 17.7 µM (inactive)
A549
  GI50: > 70.8 µM (inactive)
SF-539
  GI50: 17.3 µM (inactive)
A498
  GI50: 54.8 µM (inactive)
LOX IMVI
  GI50: 12.7 µM (inactive)
UACC-257
  GI50: 9.93 µM (inactive)
SNB-75
  GI50: 37.2 µM (inactive)
OVCAR-5
  GI50: 17.2 µM (inactive)
SR
  GI50: 1.64 µM (inactive)
DU-145
  GI50: 12.1 µM (inactive)
MOLT-4
  GI50: 0.946 µM (active)
ACHN
  GI50: 6.79 µM (inactive)
BT-549
  GI50: 11.7 µM (inactive)
HT-29
  GI50: 7.76 µM (inactive)
HCC 2998
  GI50: 4.57 µM (inactive)
SN12C
  GI50: 16.8 µM (inactive)
HL-60
  GI50: 6.12 µM (inactive)

## CCn1cc(C(=O)O)c(=O)c2cc(F)c(N3CCN(CN4C(=O)/C(=N\NC(=O)c5ccncc5)c5cc(Cl)ccc54)CC3)cc21
Malme-3M
  GI50: 86.1 µM (inactive)
RXF 393
  GI50: 19.6 µM (inactive)
T47D
  GI50: 29.4 µM (inactive)
NCI-H460
  GI50: 52.4 µM (inactive)
A549
  GI50: 57.3 µM (inactive)
SF-539
  GI50: 24.7 µM (inactive)
A498
  GI50: > 100 µM (inactive)
LOX IMVI
  GI50: 34.3 µM (inactive)
UACC-257
  GI50: 37.6 µM (inactive)
SNB-75
  GI50: 25.5 µM (inactive)
OVCAR-5
  GI50: > 100 µM (inactive)
SR
  GI50: 2.34 µM (inactive)
DU-145
  GI50: 24 µM (inactive)
MOLT-4
  GI50: 0.048 µM (active)
ACHN
  GI50: 37.3 µM (inactive)
BT-549
  GI50: 91.6 µM (inactive)
HT-29
  GI50: 32.7 µM (inactive)
HCC 2998
  GI50: 36 µM (inactive)
SN12C
  GI50: 69.5 µM (inactive)
HL-60
  GI50: 15.8 µM (inactive)

## CCOC(=O)/C=C(\C(=O)OCC)n1ccc(=O)n(CC(=O)OCC)c1=O
Malme-3M
  GI50: 2.48 µM (inactive)
RXF 393
  GI50: 1.26 µM (inactive)
T47D
  GI50: 2.44 µM (inactive)
NCI-H460
  GI50: 15.6 µM (inactive)
A549
  GI50: 17.2 µM (inactive)
SF-539
  GI50: 16.6 µM (inactive)
A498
  GI50: 17.7 µM (inactive)
LOX IMVI
  GI50: 2.11 µM (inactive)
UACC-257
  GI50: 11.6 µM (inactive)
SNB-75
  GI50: 9.75 µM (inactive)
OVCAR-5
  GI50: 4.95 µM (inactive)
SR
  GI50: 2.17 µM (inactive)
DU-145
  GI50: 17.3 µM (inactive)
MOLT-4
  GI50: 1.43 µM (inactive)
ACHN
  GI50: 1.64 µM (inactive)
BT-549
  GI50: 11.7 µM (inactive)
HT-29
  GI50: 5.9 µM (inactive)
HCC 2998
  GI50: 16 µM (inactive)
SN12C
  GI50: 4.84 µM (inactive)
HL-60
  GI50: 0.495 µM (active)

## CCOC(=O)C1=CN(C(=O)c2ccccc2)CCC1Cc1ccccc1 (stereo not given)
Malme-3M
  GI50: 25.4 µM (inactive)
RXF 393
  GI50: 18.1 µM (inactive)
T47D
  GI50: 12.5 µM (inactive)
NCI-H460
  GI50: 17.5 µM (inactive)
A549
  GI50: 29.2 µM (inactive)
SF-539
  GI50: 21.5 µM (inactive)
A498
  GI50: 7.87 µM (inactive)
LOX IMVI
  GI50: 18 µM (inactive)
UACC-257
  GI50: 15.8 µM (inactive)
SNB-75
  GI50: 18.2 µM (inactive)
OVCAR-5
  GI50: 44.6 µM (inactive)
SR
  GI50: 12.5 µM (inactive)
DU-145
  GI50: 40.9 µM (inactive)
MOLT-4
  GI50: 13.5 µM (inactive)
ACHN
  GI50: 20.6 µM (inactive)
BT-549
  GI50: 25.8 µM (inactive)
HT-29
  GI50: 17 µM (inactive)
HCC 2998
  GI50: 17.6 µM (inactive)
SN12C
  GI50: 23.1 µM (inactive)
HL-60
  GI50: 9.04 µM (inactive)

## COc1cc(C[C@@H](C)N)cc(OC)c1
Malme-3M
  GI50: > 100 µM (inactive)
RXF 393
  GI50: 43.7 µM (inactive)
T47D
  GI50: > 100 µM (inactive)
NCI-H460
  GI50: > 100 µM (inactive)
A549
  GI50: > 100 µM (inactive)
SF-539
  GI50: > 100 µM (inactive)
A498
  GI50: > 100 µM (inactive)
LOX IMVI
  GI50: > 100 µM (inactive)
UACC-257
  GI50: > 100 µM (inactive)
SNB-75
  GI50: 21.8 µM (inactive)
OVCAR-5
  GI50: > 100 µM (inactive)
SR
  GI50: > 100 µM (inactive)
DU-145
  GI50: > 100 µM (inactive)
MOLT-4
  GI50: > 100 µM (inactive)
ACHN
  GI50: > 100 µM (inactive)
BT-549
  GI50: > 100 µM (inactive)
HT-29
  GI50: > 100 µM (inactive)
HCC 2998
  GI50: > 100 µM (inactive)
SN12C
  GI50: > 100 µM (inactive)
HL-60
  GI50: > 100 µM (inactive)
